The values that follow come from ChEMBL document CHEMBL3399990, “Synthesis of mycothiol conjugate analogues and evaluation of their antimycobacterial activity” (Bioorg Med Chem Lett, 2015).

In brackets after ≈: the same amount, converted by molar mass. Where only a bound is given, the exact number is not on record here.

The test deals with Mycobacterium tuberculosis. The experiment in a line: Bacteriostatic activity against Mycobacterium bovis BCG after 7 days by Alamar Blue assay. It counts as functional. The conditions noted are these: variant bovis BCG, 168 h. (Resazurin is reduced to fluorescent resorufin, in cell work by metabolically active cells.)

The term MIC denotes the least concentration at which growth counts as inhibited. Lower therefore signals a more susceptible organism. As for `N[C@@H](CSC(Cl)=C(Cl)Cl)C(=O)N[C@@H]1[C@@H](O)[C@H](O)[C@@H](CO)O[C@@H]1SC1CCCCC1`, 62.5 µM (≈ 31.9 µg/mL) was the least that counted as inhibitory (MIC).
In turn, `N[C@@H](CSC(Cl)=C(Cl)Cl)C(=O)N[C@@H]1[C@@H](O)[C@H](O)[C@@H](CO)O[C@H]1SC1CCCCC1` showed an MIC of 125 µM (≈ 63.7 µg/mL).
Compound `CC(C)(C)OC(=O)N[C@@H](CSC(Cl)=C(Cl)Cl)C(=O)N[C@@H]1[C@@H](O)[C@H](O)[C@@H](CO)O[C@@H]1SC1CCCCC1` had an MIC of 500 µM (≈ 305 µg/mL).
Turning to `CC(C)(C)OC(=O)N[C@@H](CSC(Cl)=C(Cl)Cl)C(=O)N[C@@H]1[C@@H](O)[C@H](O)[C@@H](CO)O[C@H]1SC1CCCCC1`, the MIC was no less than 1000 µM.
